The numbers were not newly measured in patent publication US20200289431A1 (priority 2019, published 2020), which cites them from elsewhere.

For series [1] the following is noted: in vivo.
Another series has as its target cannabinoid CB2 receptor (Homo sapiens, UniProt P34972).

SMILES strings stand for the structures.

Sequence of cannabinoid CB2 receptor (P34972 whole entry): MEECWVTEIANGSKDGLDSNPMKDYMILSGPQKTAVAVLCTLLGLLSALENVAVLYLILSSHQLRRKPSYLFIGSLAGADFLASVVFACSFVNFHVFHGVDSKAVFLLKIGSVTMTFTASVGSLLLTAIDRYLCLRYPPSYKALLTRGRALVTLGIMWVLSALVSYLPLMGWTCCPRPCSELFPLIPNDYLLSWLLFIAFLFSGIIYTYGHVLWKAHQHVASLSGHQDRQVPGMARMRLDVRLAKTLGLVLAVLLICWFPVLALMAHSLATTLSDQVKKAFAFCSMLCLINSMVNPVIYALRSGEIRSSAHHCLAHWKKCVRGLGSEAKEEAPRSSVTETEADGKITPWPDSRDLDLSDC

In the case of `C=C(C)[C@@H]1CCC(C)=C[C@H]1c1c(O)cc(CCCCC)cc1O` [Cannabidiol], the elimination half-life in series [1] is 18 to 32 h. Moreover, the “affinity for the cannabinoid CB2 receptor” value at cannabinoid CB2 receptor is listed as “very low affinity”.
